In patent publication US7855325B2, “Use of nitric oxide modulators in Agrobacterium-mediated plant transformation” (Monsanto Technology LLC, priority 2003, dated 2010):

Experiments:
corn immature embryos [1] = test: Follow-up callus induction experiment, embryos on liquid MSW57 medium with L-NMMA or SNAP; assay type: cell-based; details: MSW57 plus 0.1 mM SNAP, 14-d in culture
Protocol: To follow up on this callus induction observation, a new experiment was set up where a typical embryo harvest was done from several ears and the embryos were distributed onto control medium MSW57, MSW57 plus 1.0 mM L-NMMA or 0.1 mM S-nitroso-N-acetylpenicillamine (SNAP, a NO donor compound). In this experiment the embryos were placed on a dark Millipore filter set on top of two pieces of felt.

corn immature embryos [2] = test: Callus induction and cell proliferation from corn immature embryos on medium with NO modulators; assay type: cell-based; details: 0.01 mM SNAP, compared to other treatments and controls
Protocol: This example describes the use of nitric oxide modulators in Agrobacterium-mediated transformation of corn. Corn callus and embryos, with and without previous inoculation in Agrobacterium, were cultured on medium containing NO donors (0.1 mM SNP and 0.01 mM SNAP), a NO-synthase inhibitor (1 mM L-NMMA), and the enantiomer of the inhibitor as negative control (1 mM D-NMMA, which has no effect on NO-synthase). All chemicals were obtained from EMD Biosciences, Inc. (La Jolla, Calif.). Callus and embryos, with and without previous inoculation in Agrobacterium, cultured on MSW57 (Table 1) were used as additional controls. The increase in the percentage of explants expressing GFP recorded on media with NO donors from Day 3 to Day 6 might be due to compound degradation. […] Limiting nitric oxide (NO) production in immature embryos and callus could increase transient GFP expression.

## CC(=O)N[C@H](C(=O)O)C(C)(C)SN=O (racemic) [SNAP, S-nitroso-N-acetylpenicillamine]
Corn immature embryos [1]
  embryos with callus induction versus control: more embryos with callus induction than the control
Corn immature embryos [2]
  cell proliferation of embryo-derived callus: significantly higher
